From patent US20240398824A1, “Inhibition Of Rip Kinases For Treating Neurodegenerative Disorders” (The Johns Hopkins University, priority 2018, published 2024)

Tested on: BV-2 microglia
Test: Real-time PCR of C1q, IL-6 and TNFα in AβO-activated BV-2 microglia
Format: cell-based
Set-up: key to mRNA levels of C1q / mRNA levels of IL-6 / mRNA levels of TNFα: relative expression normalized to GAPDH by 2^-ΔΔCt; PBS = 1
Details: for mRNA levels of IL-6 / mRNA levels of C1q / mRNA levels of TNFα: BV-2 microglia preincubated 1 h with inhibitor 1 μM, then AβO 5 μM 4 h, ±SD; for mRNA levels of IL-6: PBS = 1 ± 0.08, Abeta alone 12.53 ± 0.59; for mRNA levels of C1q: PBS = 1 ± 0.13, Abeta alone 3.7 ± 0.06; for mRNA levels of TNFα: PBS = 1 ± 0.16, Abeta alone 16.19 ± 3.21; for microglial activation / release of multiple inflammatory mediators including C1q, IL-6 and TNFα: inhibitor 1 μM pretreatment, AβO 5 μM, in words
Protocol: Synthetic Abeta1-42 oligomers were generated as previously described (PMID: 27834631). Hydroxyfluroisopropanol (HFIP)-treated synthethic Abeta1-42 peptides (rPeptide, Bogart, GA, USA) were dissolved in dimethylsulfoxide (DMSO) and further diluted in phosphate-buffered saline (PBS) to obtain a 250 μM stock solution. The stock solution was incubated at 4° C. for at least 24 hours and stored at −80° C. until use. Before use, the solution was centrifuged at 12,000 g for 10 minutes and the supernatant was used as an oligomeric Aβ.
BV-2 microglial cells were cultured in DMEM media. 10^6 of BV-2 microglia in 6 well plate were treated with 2.5 μM of Abeta for 4 hrs. Total RNA from cultured cells was extracted with a RNA isolation kit (Qiagen, Valencia, CA, USA) following manufacturer's instructions. RNA concentration was measured spectrophotometrically using a NanoDrop 2000 (Thermo scientific). Subsequently, 2 μg of total RNA was reverse transcribed to cDNA using the High-Capacity cDNA Reverse Transcription System (Life Technologies, Grand Island, NY, USA). Comparative qPCR was performed using fast SYBR Green Master Mix (Life Technologies) and steponeplus real-time pcr system (Applied Biosystems, Foster City, CA, USA). The expression levels of target genes were normalized to the expression of GAPDH and calculated based on the comparative cycle threshold Ct method^−ΔΔ(2) Ct. (n=3)
To examine the effect of RIPK2 inhibition, 10^6 of BV-2 microglia in 6 well plate were preincubated with DMSO, GSK583 (1 μM, Medchemexpress), OD361 (1 μM, Calbiochem), or Sorafenib (1 μM) for one hour. For mRNA analysis, 5 μM of AβO was treated additional for 4 hours.

Compound | mRNA levels of IL-6 | mRNA levels of C1q | mRNA levels of TNFα | microglial activation | release of multiple inflammatory mediators including C1q, IL-6 and TNFα
Clc1cc2cc(c1)-c1cnn3c1NC(=NCCOCCO2)C=C3 [OD36, 6-Chloro-10,11,14,17-tetrahydro-13H-1,16-etheno-4,8-metheno-1H-pyrazolo[3,4-g][1,14,4,6]dioxadiazacyclohexadecine] | 7.64 ± 0.48 | 0.85 ± 0.12 | 5.85 ± 0.03 | blocked microglial activation | significantly reduced
CNC(=O)c1cc(Oc2ccc(NC(=O)Nc3ccc(Cl)c(C(F)(F)F)c3)cc2)ccn1 [Sorafenib] | 7.13 ± 0.71 | 3.3 ± 0.09 | 9.69 ± 0.47 | blocked microglial activation | significantly reduced
